In patent publication US11173152B1, “Glutathione-coated nanoparticles for delivery of MKT-077 across the blood-brain barrier” (UNIVERSITY OF SOUTH FLORIDA, priority 2015, dated 2021):
Where two headings read alike, the source gives them in different places.

Columns and labels:
[1] = rat, in vivo; cited from earlier work
[2] = tested on: TRANSWELL in vitro BBB model, co-culture of RBE4 (rat brain endothelial) cells with C6 (rat astrocytoma) cells; assay: In vitro BBB permeation model; format: in vitro ADME; conditions: end of the 48-hour study period, 10 μM equivalent, n=4
Protocol: A […] in vitro BBB model was established to study the BBB permeation of MKT NPs and MKT Glu-NPs compared to drug solution according to a method previously described by the current inventors in [18]. […] permeable inserts were treated with 0.1% rat tail collagen I on the apical and basolateral sides. After 24 hours, C6 (rat astrocytoma) cells were seeded onto the basolateral side of the permeable insert (5×10^4 cells). After 48 hours, RBE4 (rat brain endothelial) cells were seeded onto the apical side of the permeable (5×10^4 cells). Cells were bathed in 1:1 mixture of Ham's F10:MEM media supplemented with 10% FBS with 1.5 mL in the basolateral chamber and 0.5 mL in the apical chamber, and were allowed to incubate (37° C. and 5% CO2) for 24 hours until confluence was established.
After 24 hours, media was replaced with a 1:1 mixture of Ham's F10:MEM media supplemented with 1% FBS (experimental media), and cells were treated with 10 μM equivalent treatments of MKT aqueous drug solution, MKT NPs, and MKT Glu-NPs. 1 mL media samples were aliquoted from the basolateral chamber at predetermined intervals over a 48-hour period to investigate the trans-BBB permeation of the treatments. Aliquots were read by UV spectroscopy (at wavelength of 492 nm (λmax) and compared to UV absorbance of standard dilutions of MKT drug in experimental media (r^2=0.9990).

[3] = blockage by the BBB; cited from earlier work
[4] = human subjects; cited from earlier work
[5] = tested on: human tau in HeLa cells stably expressing human tau; assay: Effect on tau level in a cellular AD model (Western blot); format: cell-based; conditions: 3 μM, 24 hours, GAPDH normalization
Protocol: AD model: HeLa cells stably expressing human tau were maintained in OPTIMEM media as described earlier. Treatment with nanoparticles or control were performed for 24 hours and samples analyzed by western blotting, as described earlier.
In order to determine whether the newly formulated MKT-NPs are active, a cellular AD HeLa cell model that stably expresses human tau was used. Cells were treated with 3 μM of MKT uncoated NPs or MKT Glu-NPS or drug in solution or various controls for 24 hours.

[6] = In vitro drug release (dialysis membrane, PBS pH 7.4); format: physicochemical; conditions: within the initial 4 hours; PBS pH 7.4, 37° C.
Protocol: The drug release profile of MKT from MKT NPs and MKT Glu-NPs was investigated using a method previously described by the current inventors in [14]. 0.05 mg equivalent of MKT aqueous solution, MKT NPs, and MKT Glu-NPs were placed in dialysis membrane tubing ([…]) and placed in 20 mL of release medium comprised of PBS (pH 7.4) stirring at 100 rpm and 37° C. 1 mL aliquots were removed at predetermined intervals over 7 days and analyzed by UV spectroscopy at wavelength of 492 nm (λmax) and compared to UV absorbance of standard aqueous dilutions of MKT drug (r^2=0.9943).

[7] = dog, in vivo; cited from earlier work

CCn1c(=O)/c(=C2\Sc3ccccc3N2C)s/c1=C\c1cccc[n+]1CC.[Cl-] [MKT-077]
renal toxicity [1]: irreversible renal toxicity | drug permeated through the BBB model [2]: 20% | brain permeation [3]: limited-to-no brain permeation | renal toxicity [4]: irreversible renal toxicity | reduction in tau levels [5]: greater and comparable reduction in tau levels | drug released [6]: Approximately 100% | renal toxicity [7]: irreversible renal toxicity
